Consider 71 compounds from PubChem BioAssay AID179 (DTP/NCI, 2004).

The structures appear in SMILES notation. The source made the active and inactive calls.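 Rule for the calls: active = compounds giving half or more protection of infected cells from virus-caused growth loss, again on retest; inactive = the rest.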 Where a SMILES comes first, the peptide text is derived from it. [ ]: non-standard residue; d: D form. The star is where a group is joined. Boc = CC(C)(C)OC(=O)*; Lac = C[CH](O)C(=O)O; OBn = c1ccc(CO*)cc1

This experiment deals with CEM cells HIV-1 protection, formazan growth assay. In words: NCI AIDS Antiviral Assay. To be noted: for IC50: measured here: growth of uninfected CEM cells. A digest of the protocol: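 Five concentrations of each compound were applied to infected and uninfected human CEM cells. Protection from HIV-1 was judged from growth measured with a soluble formazan assay.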

As to `CCOC(=O)/C(C#N)=C(N)/C(=N\Nc1cccc(C(F)(F)F)c1)C(=O)OCC`, the outcome was inactive.
Regarding `COC1=CC(=C(c2ccc(O)c(OC)c2)c2ccc(O)c(OC)c2)C=CC1=O`, the EC50 (commonly the concentration giving half of the maximal effect) was > 200 µM and the IC50 (usually the point on the concentration scale where inhibition reaches its midpoint) came out at 3.55 µM.
`COP(=O)(OC)C(NC=O)P(=O)(OC)OC`: the EC50 was > 200 µM and the IC50 is > 200 µM.
In the case of `CCOC(=O)Nc1nn(C)c(=NCc2ccccc2)s1`, the EC50 is > 200 µM and the IC50 was > 200 µM.
Regarding `O=c1ccc2c(-c3ccccc3S(=O)(=O)O)c3ccc(O)c(O)c3oc-2c1O`, the EC50 stood at 2.4 µM and the IC50 is > 200 µM.
For `CC1(C)OC(=O)C(C(N)=O)=C1/C=C1\OC(=O)c2ccccc21`, in that order: > 24 µM and > 24 µM.
For `CC(C)OC(=O)c1ccc(CCC2=CC(=O)C(Br)=CC2=O)cc1`, the EC50 is > 200 µM and the IC50 stood at 8.71 µM.
Taken in the same sequence, the figures for `O=C(O)CCC(=O)c1ccc2oc3ccccc3c2c1` were > 200 µM and > 200 µM.
Taken in the same sequence, the figures for `OC1(C2(O)CCC2)CCC1` were > 200 µM and > 200 µM.
In the case of `CC(C)(C)OC(=O)C1C(=O)C(C(=O)OC(C)(C)C)C23CCCCC12C(C(=O)OC(C)(C)C)C(=O)C3C(=O)OC(C)(C)C` (stereo unspecified), the EC50 is > 30.2 µM and the IC50 is > 30.2 µM.
As to `CCCC(=O)Nc1ccc(O)c2c1C1CCCCCC21` (stereo unspecified), the EC50 was > 200 µM and the IC50 amounted to 102 µM.
As to `CN1CC[C@@H](O)[C@@H](CNC23CC4CC(CC(C4)C2)C3)C1`, the outcome was inactive.
For the compound `CCNC(=S)N/N=C(/C)c1cccc(/C(C)=N\NC(=S)NCC)n1`, the EC50 was > 200 µM and the IC50 is 2.19 µM.
For `CC(=O)OC1CC2C(C)(C)C(=O)C=C[C@]2(C)C2CCC3(C)C(c4ccoc4)C(=O)C4OC43[C@]12C` (stereo partly specified), the result was inactive.
On to `COc1csc([C@H]2CCC3[C@@H]4CC=C5C[C@@H](OC(=O)CCC(=O)O)CC[C@]5(C)C4CC[C@@]32C)n1` (stereo partly specified), for which the EC50 was > 51.3 µM and the IC50 came to 32.4 µM.
With `Cn1c2c(c3ccccc31)CCN1C(=O)CN(C(=O)C3CCCCC3)CC21` (stereo unspecified), the EC50 was > 200 µM and the IC50 is 66.1 µM.
For `C#CCn1c(I)cc2c(c1=O)COC(=O)[C@]2(O)CC`, in that order: > 200 µM and > 200 µM.
For `C#CCNC(CS)C(=O)O` (stereo unspecified), in that order: > 200 µM and > 200 µM.
As to `CC(=O)Oc1c(OC(C)=O)c(C=O)c2c(OC(C)=O)c(-c3c(C)cc4c(C(C)C)c(OC(C)=O)c(OC(C)=O)c(C=O)c4c3OC(C)=O)c(C)cc2c1C(C)C`, the EC50 is > 200 µM and the IC50 is 8.91 µM.
Consider `CN(C)CC1CCCC/C1=N/O` (stereo unspecified), for which the result was inactive.
`CCOC(=O)c1c(C)[nH]c(=S)c(C#N)c1-c1ccco1`: the EC50 was > 200 µM and the IC50 was 81.3 µM.
With `O=C1C2C3C=CC(C2C(=O)N1COP(=O)(O)O)C1C2C(=O)N(COP(=O)(O)O)C(=O)C2C31` (stereo unspecified), the EC50 is > 100 µM and the IC50 was > 100 µM.
Take `Cc1ccsc1/C=N/Nc1cnccn1`: the EC50 was > 200 µM and the IC50 was 75.9 µM.
Take `Cn1c(=O)c2c(nc(N/N=c3/scc(-c4ccccc4)n3Cc3ccccc3)n2C)n(C)c1=O`: the EC50 was > 200 µM and the IC50 was found to be 12.3 µM.
In the case of `S=C1N(c2ccc(Cl)cc2)C2=C(N=Nc3ccccc3Cl)C(=Nc3ccccc3S2)N1c1ccccn1`, the EC50 is > 46.8 µM and the IC50 came out at 21.9 µM.
Turning to `NC(=O)CCC(NCc1c2ccccc2[n+]([O-])c2ccccc12)C(=O)O` (stereo unspecified), the result was inactive.
As to `Cc1c2ccccc2nc(CS(C)=O)[n+]1[O-]` (stereo unspecified), the EC50 was > 200 µM and the half-inhibitory concentration (IC50) was > 200 µM.
In the case of `S=c1[nH]c(=S)c2sc(=S)n(-c3ccccc3)c2[nH]1`, the EC50 is > 115 µM and the IC50 came to 56.2 µM.
With `CCCCCC=C(c1cc(Cl)c(OC)c(C(=O)OCC)c1)c1cc(Cl)c(OC)c(C(=O)OCC)c1`, the EC50 was > 10 µM and the IC50 was > 10 µM.
In the case of `O=C(Nc1ccc2c(O)cc(S(=O)(=O)O)cc2c1)Nc1ccc2c(O)cc(S(=O)(=O)O)cc2c1`, the EC50 was 64.6 µM and the concentration for half-maximal inhibition (IC50) was determined as 155 µM.
Taken in the same sequence, the figures for `O=C(Nc1ccc(Cl)cc1)NS(=O)(=O)c1coc2ccccc2c1=O` were > 200 µM and 93.3 µM.
For `CC(=O)NCCc1c(-c2[nH]c3ccccc3c2CCNC(C)=O)[nH]c2ccccc12`, in that order: 51.3 µM and 107 µM.
For `CC1OC(OC2CC(O)(C(=O)CO)Cc3c(O)c4c(c(O)c32)C(=O)c2ccccc2C4=O)CC(N)C1O` (stereo unspecified), in that order: > 0.2 µM and 0.0631 µM.
In the case of `O=c1cc(O)nc2nc(-c3ccccc3)c(-c3ccccc3)nn12`, the EC50 was > 81.3 µM and the IC50 is > 81.3 µM.
With `COC(=O)C1=C(c2ccc(Cl)cc2)C(O)N=C(NN)N1` (stereo unspecified), the EC50 was > 832 µM and the IC50 was > 832 µM.
`O=C(Nc1nccs1)c1ccc(C(=O)Nc2nccs2)cc1`: the EC50 is > 200 µM and the IC50 is > 200 µM.
Consider `C[N+](C)(C)c1ccc(/C=C2\C=Cc3ccccc32)cc1`, for which the outcome was inactive.
Regarding `CC(C)(C)n1[nH]c(=O)n(C(C)(C)C)c1=O`, the EC50 is > 200 µM and the IC50 is > 200 µM.
With `O=c1[nH]nc(NCCc2ccccc2)c2nnn(Cc3ccccc3)c12`, the EC50 was > 200 µM and the IC50 was > 200 µM.
Take `C=CCOC1=C(OC(C)=O)C(C2COC(C)(C)O2)OC1=O` (stereo unspecified): the EC50 is > 200 µM and the half-inhibitory concentration (IC50) came to 16.2 µM.
For `CCCCCCCCCCCCCC(=O)OCC(C[As](=O)(O)O)OC(=O)CCCCCCCCCCCCC` (stereo unspecified), in that order: > 11.5 µM and > 11.5 µM.
For `O=C(c1ccccc1)C1N(c2ccccc2)CCN1c1ccccc1`, in that order: > 200 µM and 21.9 µM.
Taken in the same sequence, the figures for `COC(=O)N/N=C(\C)C(CN1CCOCC1)C(c1ccccc1)c1cc2ccccc2oc1=O` (stereo unspecified) were > 83.2 µM and 61.7 µM.
As to `Clc1ccc(C2=NON(c3ncccn3)C3N=CC=CN23)cc1` (stereo unspecified), the EC50 was > 15.8 µM and the IC50 is > 15.8 µM.
Turning to `NC(=O)c1cnc2cc(O)c(O)cc2c1`, the EC50 was > 209 µM and the IC50 came out at 14.1 µM.
Taken in the same sequence, the figures for `O=C(Nc1ccc(I)cc1)c1ccccc1[Se][Se]c1ccccc1C(=O)Nc1ccc(I)cc1` were > 4.68 µM and > 4.68 µM.
For `c1ccc2c(c1)[nH]c1nc3cc(-c4ccc5nc6c(nc5c4)[nH]c4ccccc46)ccc3nc12`, in that order: > 200 µM and 110 µM.
In the case of `CCN1C[C@]2(COC)[C@H](O)C[C@H](OC)[C@]34C1[C@H]([C@H](OC)[C@H]23)[C@]1(OC(C)=O)[C@H]2[C@@H](OC(=O)c3ccccc3)[C@](O)(C[C@H]24)[C@@H](OC)[C@@H]1O`, the outcome was inactive.
On to `N#C/C(=C\N1CC(=O)NC1=S)C(=O)c1ccc2ccccc2c1`, for which the EC50 was > 200 µM and the IC50 was 158 µM.
For `COC1=CC(=O)NCCN1`, in that order: 135 µM and 479 µM.
In the case of `O=C(O)c1cc(O)cc(O)c1N=Nc1ccc(CCc2ccc(N=Nc3c(O)cc(O)cc3C(=O)O)cc2S(=O)(=O)O)c(S(=O)(=O)O)c1`, the EC50 was 2.75 µM and the IC50 came out at 75.9 µM.
For `CC(OC(=O)C(Cc1ccccc1)NC(=O)C(Cc1ccccc1)NC(=O)OC(C)(C)C)C(=O)OCc1ccccc1` (stereo not drawn) (Boc-Phe-Phe-[Lac]-OBn; configuration not given here), the EC50 was > 200 µM and the IC50 is 105 µM.
Turning to `Cc1ccc(S(=O)(=O)/C(C#N)=C/NC(=S)Nc2cc(Cl)ccc2Cl)cc1`, the outcome was inactive.
On to `Cc1ccccc1-c1c(N)nc(N)nc1C(=O)Nc1nccs1`, for which the EC50 is > 41.7 µM and the half-maximal inhibitory concentration (IC50) was > 41.7 µM.
In the case of `Nc1c2ccccc2nc2c1ccc1ncccc12`, the EC50 is > 200 µM and the 50% inhibitory concentration (IC50) stood at 6.46 µM.
Taken in the same sequence, the figures for `Cc1ccccc1C1OC(=O)c2ccccc21` (stereo unspecified) were > 158 µM and 97.7 µM.
For `CCC(=O)ONC(=O)Cn1ccc([N+](=O)[O-])n1`, in that order: > 200 µM and 66.1 µM.
For `Cn1c(=O)c2c(nc3sc4ncccc4c(=O)n32)n(C)c1=O`, in that order: > 151 µM and > 151 µM.
`CCOP(=O)(OCC)C(F)(F)Cc1cnc(C)c2c1COC(C)(C)O2`: the EC50 is > 200 µM and the IC50 was > 200 µM.
As for `CC1(C)C(=NO)C(C)(C)C1=NO`, the result was inactive.
Regarding `Cc1ccn2c(N=O)c(-c3ccccc3)nc2c1`, the EC50 was 135 µM and the IC50 was > 200 µM.
Take `c1csc(-c2ccsc2-c2ccsc2)c1`: the EC50 is > 200 µM and the concentration for half-maximal inhibition (IC50) came out at 87.1 µM.
For `CN(C)c1ccc(/C=C(\NC(=O)c2ccccc2)c2nn(C)c(=O)o2)cc1`, in that order: > 100 µM and > 100 µM.
Take `O=[N+]([O-])c1ccc(/C=C/c2cc(-c3ccccc3)nc3ccc4ccccc4c23)cc1`: the EC50 is > 200 µM and the IC50 is > 200 µM.
Take `CCOC(=O)/C=C1\C[C@H](NC(=O)OCc2ccccc2)C(=O)N1CC(=O)OCC`: the EC50 was > 200 µM and the concentration for half-maximal inhibition (IC50) was > 200 µM.
For `O=C(Nc1ccc(Cl)cc1)c1cc(S(=O)(=O)Nc2nc3ncccc3[nH]2)c(SSc2cc(Cl)c(C(=O)Nc3ccc(Cl)cc3)cc2S(=O)(=O)Nc2nc3ncccc3[nH]2)cc1Cl`, the EC50 was > 200 µM and the IC50 was > 200 µM.
Take `Cc1ccc(-c2csc(=Nc3c(C)n(C)n(-c4ccccc4)c3=O)n2CCO)cc1`: the EC50 was > 200 µM and the IC50 was found to be 79.4 µM.
As to `COc1ccc2c(=O)oc3c(OC)cc(CCN(C)C)c4c(=O)oc1c2c34`, the result was inactive.
In the case of `OCC(CO)CC1COc2ccccc2O1` (stereo unspecified), the result was inactive.
As to `COc1ccc(CC#N)c(OCc2ccccc2)c1`, the EC50 is > 53.7 µM and the IC50 was determined as 17.8 µM.
For `CC(C)C(=O)NC(=S)Nc1ccc([N+](=O)[O-])cc1C#N`, in that order: > 123 µM and > 123 µM.
